Data reported in publication PMC10104807, “Modulation of tau tubulin kinases (TTBK1 and TTBK2) impacts ciliogenesis” (Scientific Reports, 2023).

How the values were obtained:
Assay in all cases: Eurofins enzymatic radiometric kinase assay
Format in all cases: biochemical
Details in all cases: ATP at Km, duplicate
MARK3 = target: T1, MARK3 (Homo sapiens, UniProt P27448)
T1 construct: purchased Eurofins (radiometric) / Eurofins DiscoverX scanMAX / Reaction Biology / SignalChem
Procedure: (§1) The column labeled “# < 10 PoC in enzyme panel” in Table 1 reports the number of kinases in this 17-member panel inhibited > 90% by each analog.
(§2) Details about the substrate used, protein constructs, controls, and assay protocol for these kinase assays are available at the Eurofins website: https://www.eurofinsdiscoveryservices.com. Reaction Biology Corp. (RBC) radiometric HotSpot kinase assays were carried out at the Km value for ATP in dose–response (10-pt curve) format for MYLK4, RIPK5, and YSK4 in Table S2. Details about the substrate used, protein constructs, controls, and assay protocol for these kinase assays are available at the RBC website: https://www.reactionbiology.com/list-kinase-targets-us-facility. SignalChem developed an ADP-Glo assay to test for enzymatic inhibition of PIKfyve in dose–response (10-pt curve) format in duplicate.

PAK4 = target: T2, PAK4 (Homo sapiens, UniProt O96013)
T2 construct: purchased Eurofins (radiometric) / Eurofins DiscoverX scanMAX / Reaction Biology / SignalChem
T2 sequence (O96013 whole entry): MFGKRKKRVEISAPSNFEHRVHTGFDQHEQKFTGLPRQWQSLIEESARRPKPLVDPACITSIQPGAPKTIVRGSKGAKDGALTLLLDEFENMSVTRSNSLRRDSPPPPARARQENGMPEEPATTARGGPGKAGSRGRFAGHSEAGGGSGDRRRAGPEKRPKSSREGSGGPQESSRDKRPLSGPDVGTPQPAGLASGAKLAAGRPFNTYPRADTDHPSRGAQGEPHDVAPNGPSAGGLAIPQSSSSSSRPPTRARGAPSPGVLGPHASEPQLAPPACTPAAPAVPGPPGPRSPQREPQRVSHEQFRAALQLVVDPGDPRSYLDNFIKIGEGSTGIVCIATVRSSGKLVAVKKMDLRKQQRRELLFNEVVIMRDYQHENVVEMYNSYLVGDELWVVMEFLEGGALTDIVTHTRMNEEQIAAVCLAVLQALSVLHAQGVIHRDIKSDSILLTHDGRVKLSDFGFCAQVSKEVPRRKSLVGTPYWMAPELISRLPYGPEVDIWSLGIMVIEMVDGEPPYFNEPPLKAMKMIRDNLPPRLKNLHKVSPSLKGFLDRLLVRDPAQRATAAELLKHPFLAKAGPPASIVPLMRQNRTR
Procedure: as §1, §2

PAK6 = target: T3, PAK6 (Homo sapiens, UniProt Q9NQU5)
T3 construct: purchased Eurofins (radiometric) / Eurofins DiscoverX scanMAX / Reaction Biology / SignalChem
T3 sequence (Q9NQU5 whole entry): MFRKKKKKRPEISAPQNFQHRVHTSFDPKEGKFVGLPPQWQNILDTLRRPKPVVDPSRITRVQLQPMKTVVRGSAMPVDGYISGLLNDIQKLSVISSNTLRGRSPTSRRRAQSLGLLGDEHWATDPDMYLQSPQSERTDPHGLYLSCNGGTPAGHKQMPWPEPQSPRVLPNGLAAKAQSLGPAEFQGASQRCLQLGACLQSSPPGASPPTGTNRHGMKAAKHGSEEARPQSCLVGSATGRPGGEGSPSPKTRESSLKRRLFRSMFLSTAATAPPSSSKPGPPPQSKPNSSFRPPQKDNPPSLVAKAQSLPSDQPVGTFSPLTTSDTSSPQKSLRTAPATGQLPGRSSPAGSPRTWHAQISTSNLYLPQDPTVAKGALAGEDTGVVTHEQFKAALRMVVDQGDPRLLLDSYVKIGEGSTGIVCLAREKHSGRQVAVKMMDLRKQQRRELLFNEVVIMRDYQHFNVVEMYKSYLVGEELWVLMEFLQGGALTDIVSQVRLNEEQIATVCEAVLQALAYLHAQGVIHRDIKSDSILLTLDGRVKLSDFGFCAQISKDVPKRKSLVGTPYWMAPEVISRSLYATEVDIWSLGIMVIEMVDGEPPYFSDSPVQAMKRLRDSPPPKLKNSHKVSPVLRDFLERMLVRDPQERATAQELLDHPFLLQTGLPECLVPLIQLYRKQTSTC
Procedure: as §1, §2

TAOK2 = target: T4, TAOK2 (Homo sapiens, UniProt Q9UL54)
T4 construct: purchased Eurofins
T4 sequence (Q9UL54 1-1235): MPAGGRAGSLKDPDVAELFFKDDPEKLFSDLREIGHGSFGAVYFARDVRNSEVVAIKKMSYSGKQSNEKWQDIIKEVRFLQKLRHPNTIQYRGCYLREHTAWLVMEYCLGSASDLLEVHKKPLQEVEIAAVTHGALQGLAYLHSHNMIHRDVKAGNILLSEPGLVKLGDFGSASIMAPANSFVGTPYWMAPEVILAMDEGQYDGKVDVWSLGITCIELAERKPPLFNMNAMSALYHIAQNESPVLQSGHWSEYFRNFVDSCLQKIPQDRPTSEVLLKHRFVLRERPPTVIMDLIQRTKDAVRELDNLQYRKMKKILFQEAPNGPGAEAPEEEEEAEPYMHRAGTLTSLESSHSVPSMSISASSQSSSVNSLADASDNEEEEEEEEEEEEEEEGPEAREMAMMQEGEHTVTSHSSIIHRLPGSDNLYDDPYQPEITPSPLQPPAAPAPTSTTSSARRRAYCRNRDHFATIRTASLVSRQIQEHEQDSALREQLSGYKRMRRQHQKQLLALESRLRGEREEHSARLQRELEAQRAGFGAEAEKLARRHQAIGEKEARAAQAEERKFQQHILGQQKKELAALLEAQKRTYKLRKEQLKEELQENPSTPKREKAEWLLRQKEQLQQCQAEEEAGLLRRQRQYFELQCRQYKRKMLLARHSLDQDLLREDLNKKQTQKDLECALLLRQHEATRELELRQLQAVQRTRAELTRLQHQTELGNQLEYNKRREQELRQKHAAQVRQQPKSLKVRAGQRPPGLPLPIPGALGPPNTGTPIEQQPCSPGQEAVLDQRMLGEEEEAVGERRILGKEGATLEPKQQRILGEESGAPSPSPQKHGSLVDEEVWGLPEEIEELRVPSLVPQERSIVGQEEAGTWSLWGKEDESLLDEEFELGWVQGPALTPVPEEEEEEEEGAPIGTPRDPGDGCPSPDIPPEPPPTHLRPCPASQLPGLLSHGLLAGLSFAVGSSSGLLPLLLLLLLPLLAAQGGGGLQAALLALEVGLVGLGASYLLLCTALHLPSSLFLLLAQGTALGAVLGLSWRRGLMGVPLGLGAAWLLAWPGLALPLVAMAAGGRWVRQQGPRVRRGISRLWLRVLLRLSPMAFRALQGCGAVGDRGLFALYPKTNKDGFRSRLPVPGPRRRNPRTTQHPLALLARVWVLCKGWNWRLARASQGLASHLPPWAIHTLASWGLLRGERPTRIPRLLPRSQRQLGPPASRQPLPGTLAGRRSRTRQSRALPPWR
Procedure: as §1, §2

TSSK1 = target: T5, TSSK1 (Homo sapiens, UniProt Q9BXA7)
T5 construct: purchased Eurofins (radiometric) / Eurofins DiscoverX scanMAX / Reaction Biology / SignalChem
T5 sequence (Q9BXA7 1-367): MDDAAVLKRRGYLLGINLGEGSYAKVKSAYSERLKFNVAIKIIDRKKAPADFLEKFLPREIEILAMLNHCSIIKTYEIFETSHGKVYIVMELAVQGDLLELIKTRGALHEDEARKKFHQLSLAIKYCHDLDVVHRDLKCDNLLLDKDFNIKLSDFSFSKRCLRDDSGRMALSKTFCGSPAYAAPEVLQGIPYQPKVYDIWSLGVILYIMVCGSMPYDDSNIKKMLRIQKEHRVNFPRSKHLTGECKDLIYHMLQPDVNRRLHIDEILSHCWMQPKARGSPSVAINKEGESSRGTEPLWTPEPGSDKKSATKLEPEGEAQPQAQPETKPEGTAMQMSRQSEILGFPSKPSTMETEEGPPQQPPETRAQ
Procedure: as §1, §2

TSSK3 = target: T6, TSSK3 (Homo sapiens, UniProt Q96PN8)
T6 construct: purchased Eurofins
T6 sequence (Q96PN8 1-268): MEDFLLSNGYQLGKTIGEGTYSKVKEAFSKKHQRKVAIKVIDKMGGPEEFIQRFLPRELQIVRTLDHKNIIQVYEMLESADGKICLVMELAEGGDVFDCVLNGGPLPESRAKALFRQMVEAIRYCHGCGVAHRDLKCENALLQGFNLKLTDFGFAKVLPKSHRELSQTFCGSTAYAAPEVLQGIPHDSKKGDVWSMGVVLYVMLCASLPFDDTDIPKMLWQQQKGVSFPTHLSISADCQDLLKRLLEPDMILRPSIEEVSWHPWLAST
Procedure: as §1, §2

T1 sequence (P27448 whole entry): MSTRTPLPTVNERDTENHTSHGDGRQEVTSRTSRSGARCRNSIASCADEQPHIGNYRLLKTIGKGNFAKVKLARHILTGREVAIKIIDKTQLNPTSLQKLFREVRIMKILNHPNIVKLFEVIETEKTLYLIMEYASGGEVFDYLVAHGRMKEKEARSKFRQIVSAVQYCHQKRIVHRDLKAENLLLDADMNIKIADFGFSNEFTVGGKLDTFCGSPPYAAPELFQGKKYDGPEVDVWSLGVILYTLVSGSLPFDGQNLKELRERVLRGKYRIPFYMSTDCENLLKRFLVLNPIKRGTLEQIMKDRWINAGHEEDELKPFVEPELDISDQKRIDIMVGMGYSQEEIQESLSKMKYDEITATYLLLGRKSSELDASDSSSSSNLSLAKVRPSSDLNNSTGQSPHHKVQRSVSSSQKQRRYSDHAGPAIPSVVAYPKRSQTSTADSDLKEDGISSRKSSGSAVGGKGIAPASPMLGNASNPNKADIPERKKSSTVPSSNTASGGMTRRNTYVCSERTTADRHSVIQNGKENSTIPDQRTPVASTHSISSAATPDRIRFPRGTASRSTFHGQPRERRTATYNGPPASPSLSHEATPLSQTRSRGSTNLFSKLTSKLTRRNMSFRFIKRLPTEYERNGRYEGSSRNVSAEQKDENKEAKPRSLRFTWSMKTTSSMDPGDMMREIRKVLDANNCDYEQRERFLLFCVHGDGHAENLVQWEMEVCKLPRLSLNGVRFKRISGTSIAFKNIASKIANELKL

Structure (SMILES)	MARK3 PoC at 1 μM (MARK3) [PoC]	PAK4 PoC at 1 μM (PAK4) [PoC]	PAK6 PoC at 1 μM (PAK6) [PoC]	TAOK2 PoC at 1 μM (TAOK2) [PoC]	TSSK1 PoC at 1 μM (TSSK1) [PoC]	TSSK3 PoC at 1 μM (TSSK3) [PoC]
CC(C)(O)C#Cc1ccc2[nH]c3c(c2c1)-c1nc(N)ncc1CCC3 [AMG28, reference compound]	12	8	6	26	10	1
CC(C)(O)C#Cc1ccc2[nH]cc(-c3ccnc(N)n3)c2c1 [Compound 3]	46	30	40	12	30	5
CC(C)(O)C#Cc1ccc2[nH]c3c(c2c1)-c1nc(N)ncc1CCCC3 [Compound 2]	76	67	77	83	82	120
CC(C)(O)C#Cc1ccc2[nH]c3c(c2c1)-c1nc(N)ncc1CC3 [Compound 1]	56	58	51	28	48	11
COC(C)(C)C#Cc1ccc2[nH]c3c(c2c1)-c1nc(N)ncc1CCC3 [Compound 11]	104	91	92	44	89	75
